Data taken from patent US8895585B2, “Nicotinamide derivative or salt thereof” (FUJIFILM Corporation, priority 2010, dated 2014).
pIC50: −log10 of the molar value.

Experiments:
[1] = target: T1, glutathione S-transferase (GST)-fused full-length human Syk protein (Homo sapiens, UniProt P43405); assay: Syk enzyme assay; assay type: biochemical; details: Syk enzyme assay, Test Example 1; read-out: IC50 of Syk-inhibitory activity
T1 construct: (GST)-fused full-length human Syk protein; GST (glutathione S-transferase); purchased Carna Biosciences
Method in brief: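 IC50 values come from a time-resolved FRET readout (615 and 665 nm) of substrate phosphorylation, measured after an EDTA stop and 1 h antibody binding. The kinase reaction ran 40 min at room temperature with 27 μM ATP and 0.4 μM biotin-peptide, following a 15 min compound preincubation with baculovirus-made GST-full-length human Syk.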

THP-1 cells = assay: TNFα generation assay; assay type: cell-based, human; details: Homo sapiens, THP-1, THP-1 cells; Table 22; read-out: IC50 in TNFα generation assay
Method in brief: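 THP-1 cells differentiated to macrophage-like cells with 10 ng/ml IFN-γ for 2 days, preincubated with compound 30 min at room temperature, then cultured 7 h on plates coated with human IgG (10 μg/ml). Secreted TNFα measured by ELISA or AlphaLISA.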

Row | pIC50 [1] | pIC50 (THP-1 cells) | Structure (SMILES)
1 | > 8.00 | > 7.19 | CC[C@@H](Nc1nc(Nc2ccc3c(c2)c(C)nn3CC(F)F)c(C(N)=O)cc1F)[C@H](C)N [Example 006-526, 6-(((2S,3R)-2-aminopentan-3-yl)amino)-2-((1-(2,2-difluoroethyl)-3-methyl-1H-indazol-5-yl)amino)-5-fluoronicotinamide]
2 | > 8.00 | 6.89 to 7.19 | COc1cc(Nc2nc(N[C@@H]3CCOC[C@@H]3N)c(F)cc2C(N)=O)ccn1 [Example 006-531, 6-(((3R,4R)-3-aminotrahydro-2H-pyran-4-yl)amino)-5-fluoro-2-((2-methoxypyridin-4-yl)amino)nicotinamide]
3 | 7.30 to 8.00 | 6.89 to 7.19 | NC(=O)c1cc(F)c(N[C@@H]2CCCC[C@@H]2N)nc1Nc1ccc(N2CCOC2=O)nc1 [Example 006-537, 6-(((1R,2S)-2-aminocyclohexyl)amino)-5-fluoro-2-((6-(2-oxooxazolidin-3-yl)pyridin-3-yl)amino)nicotinamide]
4 | > 8.00 | 6.70 to 6.89 | CCc1nn(C)c2ccc(Nc3nc(N[C@H](CC)[C@H](C)N)c(F)cc3C(N)=O)cc12 [Example 006-539, 6-(((2S,3R)-2-aminopentan-3-yl)amino)-2-((3-ethyl-1-methyl-1H-indazol-5-yl)amino)-5-fluoronicotinamide]
5 | > 8.00 | 6.70 to 6.89 | CCc1nn(CC)c2ccc(Nc3nc(N[C@H](CC)[C@H](C)N)c(F)cc3C(N)=O)cc12 [Example 006-541, 6-(((2S,3R)-2-aminopentan-3-yl)amino)-2-((1,3-diethyl-1H-indazol-5-yl)amino)-5-fluoronicotinamide]
6 | > 8.00 | 6.89 to 7.19 | CC[C@@H](Nc1nc(Nc2ccc3c(c2)c(C(C)C)nn3C)c(C(N)=O)cc1F)[C@H](C)N [Example 006-543, 6-(((2S,3R)-2-aminopentan-3-yl)amino)-5-fluoro-2-((3-isopropyl-1-methyl-1H-indazol-5-yl)amino)nicotinamide]
7 | > 8.00 | 6.89 to 7.19 | Cn1nc(C2CC2)c2cc(Nc3nc(N[C@@H]4CCCC[C@@H]4N)c(F)cc3C(N)=O)ccc21 [Example 006-544, 6-(((1R,2S)-2-aminocyclohexyl)amino)-2-((3-cyclopropyl-1-methyl-1H-indazol-5-yl)amino)-5-fluoronicotinamide]
8 | > 8.00 | 6.89 to 7.19 | C[C@H](N)[C@@H](CC1CC1)Nc1nc(Nc2ccc3c(c2)c(C2CC2)nn3C)c(C(N)=O)cc1F [Example 006-545, 6-(((2R,3S)-3-amino-1-cyclopropylbutan-2-yl)amino)-2-((3-cyclopropyl-1-methyl-1H-indazol-5-yl)amino)-5-fluoronicotinamide]
9 | > 8.00 | 6.70 to 6.89 | CC(C)C[C@@H](Nc1nc(Nc2ccc3c(c2)c(C2CC2)nn3C)c(C(N)=O)cc1F)[C@H](C)N [Example 006-546, 6-(((2S,3R)-2-amino-5-methylhexan-3-yl)amino)-2-((3-cyclopropyl-1-methyl-1H-indazol-5-yl)amino)-5-fluoronicotinamide]
10 | > 8.00 | 6.89 to 7.19 | CC[C@@H](Nc1nc(Nc2ccc3c(c2)c(C2CC2)nn3C)c(C(N)=O)cc1F)[C@H](C)N [Example 006-547, 6-(((2S,3R)-2-aminopentan-3-yl)amino)-2-((3-cyclopropyl-1-methyl-1H-indazol-5-yl)amino)-5-fluoronicotinamide]
11 | > 8.00 | 6.89 to 7.19 | CCn1nc(C2CC2)c2cc(Nc3nc(N[C@@H]4CCCC[C@@H]4N)c(F)cc3C(N)=O)ccc21 [Example 006-548, 6-(((1R,2S)-2-aminocyclohexyl)amino)-2-((3-cyclopropyl-1-ethyl-1H-indazol-5-yl)amino)-5-fluoronicotinamide]
12 | > 8.00 | 6.70 to 6.89 | CCn1nc(C2CC2)c2cc(Nc3nc(N[C@H](CC(C)C)[C@H](C)N)c(F)cc3C(N)=O)ccc21 [Example 006-550, 6-(((2S,3R)-2-amino-5-methylhexan-3-yl)amino)-2-((3-cyclopropyl-1-ethyl-1H-indazol-5-yl)amino)-5-fluoronicotinamide]
13 | > 8.00 | 6.70 to 6.89 | CC[C@@H](Nc1nc(Nc2ccc3c(c2)c(C2CC2)nn3CC)c(C(N)=O)cc1F)[C@H](C)N [Example 006-551, 6-(((2S,3R)-2-aminopentan-3-yl)amino)-2-((3-cyclopropyl-1-ethyl-1H-indazol-5-yl)amino)-5-fluoronicotinamide]
14 | 7.30 to 8.00 | 6.89 to 7.19 | COCCOc1ncc(Nc2nc(N[C@@H]3CCCC[C@@H]3N)c(F)cc2C(N)=O)cc1F [Example 006-552, 6-(((1R,2S)-2-aminocyclohexyl)amino)-5-fluoro-2-((5-fluoro-6-(2-methoxyethoxy)pyridin-3-yl)amino)nicotinamide]
15 | > 8.00 | 6.70 to 6.89 | NC(=O)c1cc(F)c(N[C@@H]2CCCC[C@@H]2N)nc1Nc1cnc(C2CC2)c(F)c1 [Example 006-553, 6-(((1R,2S)-2-aminocyclohexyl)amino)-2-((6-cyclopropyl-5-fluoropyridin-3-yl)amino)-5-fluoronicotinamide]
16 | 7.30 to 8.00 | 6.70 to 6.89 | CCc1ncc(Nc2nc(N[C@@H]3CCCC[C@@H]3N)c(F)cc2C(N)=O)cc1F [Example 006-554, 6-(((1R,2S)-2-aminocyclohexyl)amino)-2-((6-ethyl-5-fluoropyridin-3-yl)amino)-5-fluoronicotinamide]
17 | > 8.00 | 6.89 to 7.19 | CCn1ncc2cc(Nc3nc(N[C@H](c4ccc(F)cc4)[C@H](C)N)c(F)cc3C(N)=O)ccc21 [Example 006-555, 6-(((1R,2S)-2-amino-1-(4-fluorophenyl)propyl)amino)-2-((1-ethyl-1H-indazol-5-yl)amino)-5-fluoronicotinamide]
18 | > 8.00 | 6.89 to 7.19 | COc1cc(Nc2nc(N[C@H](c3ccc(F)cc3)[C@H](C)N)c(F)cc2C(N)=O)ccn1 [Example 006-556, 6-(((1R,2S)-2-amino-1-(4-fluorophenyl)propyl)amino)-5-fluoro-2-((2-methoxypyridin-4-yl)amino)nicotinamide]
19 | > 8.00 | 6.70 to 6.89 | COc1cc(Nc2nc(N[C@H](c3ccc(F)cc3)[C@H](C)N)c(F)cc2C(N)=O)cc(OC)n1 [Example 006-557, 6-(((1R,2S)-2-amino-1-(4-fluorophenyl)propyl)amino)-2-((2,6-dimethoxypyridin-4-yl)amino)-5-fluoronicotinamide]
20 | > 8.00 | 6.89 to 7.19 | Cc1cc(Nc2nc(N[C@H](c3ccc(F)cc3)[C@H](C)N)c(F)cc2C(N)=O)cnc1C [Example 006-558, 6-(((1R,2S)-2-amino-1-(4-fluorophenyl)propyl)amino)-2-((5,6-dimethylpyridin-3-yl)amino)-5-fluoronicotinamide]
21 | > 8.00 | 6.89 to 7.19 | COCCOc1cc(Nc2nc(N[C@H](c3ccc(F)cc3)[C@H](C)N)c(F)cc2C(N)=O)ccn1 [Example 006-559, 6-(((1R,2S)-2-amino-1-(4-fluorophenyl)propyl)amino)-5-fluoro-2-((2-(2-methoxyethoxy)pyridin-4-yl)amino)nicotinamide]
22 | > 8.00 | 6.70 to 6.89 | CC[C@@H](Nc1nc(Nc2ccc3c(c2)c(N2CCOCC2)nn3C)c(C(N)=O)cc1F)[C@H](C)N [Example 006-563, 6-(((2S,3R)-2-aminopentan-3-yl)amino)-5-fluoro-2-((1-methyl-3-morpholino-1H-indazol-5-yl)amino)nicotinamide]
